Measurements as given in EP4640674A1, “CRYSTAL FORMS OF ETHOXIMOD, PREPARATION METHOD THEREFOR AND USE THEREOF” (Jiankuan (Suzhou) Biotechnology Co., Ltd, priority 2022, dated 2024).

Experiment: Stability of crystal form C on drying (XRPD)
Type: physicochemical
Source text: The sample was subjected to a TGA test. From the above results, it is speculated that the crystal form C is an unstable channel hydrate that is prone to crystal transformation during drying and placement, making the preparation of a pure phase difficult.

CCc1nc(-c2ccc(-c3ccc(CCC(N)(CO)CO)cc3)cc2)co1.Cl [crystal form C, 2-amino-2-{2-(4'-(2-ethyloxazol-4-yl)-[1,1'-biphenyl]-4-yl)ethyl}-1,3-propylene glycol hydrochloride]
crystal form after drying (XRPD) (purged with nitrogen at room temperature for 3 h): partially crystal transformed into the crystal form A | crystal form after drying (XRPD) (vacuum at 50 °C under reduced pressure, dried overnight): partially crystal transformed into a crystal form A
